Reference: the supplement of paper PMC10307832

Columns and labels:
Assay in all cases: relative viability (nuclei count vs DMSO), 5 days (fraction); higher = more cells survive
[1] = compound: C1COCCN1C2=NC(=NC3=C2OC4=C3C=CC=N4)C5=CC(=CC=C5)NC(=O)C6=CN=C(C=C6)N + COc1cc2c(Oc3ccc(NC(=O)C4(C(=O)Nc5ccc(F)cc5)CC4)cc3F)ccnc2cc1OCCCN1CCOCC1 [Foretinib] (partner 0.25 µM)
Outline: (§1)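 Relative viability equals treated-well nuclei counts divided by vehicle-well nuclei counts. Counts came from 4× images of lung cancer cell lines grown in 1536-well plates for 5 days after pin-tool dosing on the day after seeding. Dosing used one drug alone or a fixed anchor-drug dose plus five library-drug doses (not always all listed) in √10 steps, and values are medians of duplicate plates.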

[2] = compound: C1COCCN1C2=NC(=NC3=C2OC4=C3C=CC=N4)C5=CC(=CC=C5)NC(=O)C6=CN=C(C=C6)N + C[C@]1(O)C[C@@H](c2nc(-c3ccc4ccc(-c5ccccc5)nc4c3)c3c(N)nccn32)C1 [Linsitinib] (partner 1 µM)
Outline: as §1

Entinostat + Linsitinib = compound: Nc1ccccc1NC(=O)c1ccc(CNC(=O)OCc2cccnc2)cc1 [Entinostat] + C[C@]1(O)C[C@@H](c2nc(-c3ccc4ccc(-c5ccccc5)nc4c3)c3c(N)nccn32)C1 [Linsitinib] (partner 1 µM)
Outline: as §1

Entinostat + Tozasertib = compound: Nc1ccccc1NC(=O)c1ccc(CNC(=O)OCc2cccnc2)cc1 [Entinostat] + Cc1cc(Nc2cc(N3CCN(C)CC3)nc(Sc3ccc(NC(=O)C4CC4)cc3)n2)n[nH]1 [Tozasertib] (partner 0.1 µM)
Outline: as §1

Cell Line: 201T
- relative viability ([1]; first compound 0.02 µM): 1.31
- relative viability ([1]; first compound 0.06325 µM): 1.05
- relative viability ([1]; first compound 0.2 µM): 1.1
- relative viability ([1]; first compound 0.6325 µM): 1.1
- relative viability ([1]; first compound 2 µM): 1.09
- relative viability ([2]; first compound 0.02 µM): 1
- relative viability ([2]; first compound 0.06325 µM): 1.01
- relative viability ([2]; first compound 0.2 µM): 1.05
- relative viability ([2]; first compound 0.6325 µM): 0.981
- relative viability ([2]; first compound 2 µM): 0.97
- relative viability (Entinostat + Linsitinib; first compound 0.02 µM): 1.1
- relative viability (Entinostat + Linsitinib; first compound 0.06325 µM): 1.13
- relative viability (Entinostat + Linsitinib; first compound 0.2 µM): 1.09
- relative viability (Entinostat + Linsitinib; first compound 0.6325 µM): 0.902
- relative viability (Entinostat + Linsitinib; first compound 2 µM): 0.617
- relative viability (Entinostat + Tozasertib; first compound 0.02 µM): 0.898
- relative viability (Entinostat + Tozasertib; first compound 0.06325 µM): 0.811
- relative viability (Entinostat + Tozasertib; first compound 0.2 µM): 0.589
- relative viability (Entinostat + Tozasertib; first compound 0.6325 µM): 0.501
- relative viability (Entinostat + Tozasertib; first compound 2 µM): 0.385

Cell Line: A549
- relative viability ([1]; first compound 0.02 µM): 1.05
- relative viability ([1]; first compound 0.06325 µM): 0.987
- relative viability ([1]; first compound 0.2 µM): 0.988
- relative viability ([1]; first compound 0.6325 µM): 1.06
- relative viability ([1]; first compound 2 µM): 0.225
- relative viability ([2]; first compound 0.02 µM): 0.59
- relative viability ([2]; first compound 0.06325 µM): 0.636
- relative viability ([2]; first compound 0.2 µM): 0.6
- relative viability ([2]; first compound 0.6325 µM): 0.455
- relative viability ([2]; first compound 2 µM): 0.283
- relative viability (Entinostat + Linsitinib; first compound 0.02 µM): 0.595
- relative viability (Entinostat + Linsitinib; first compound 0.06325 µM): 0.646
- relative viability (Entinostat + Linsitinib; first compound 0.2 µM): 0.627
- relative viability (Entinostat + Linsitinib; first compound 0.6325 µM): 0.648
- relative viability (Entinostat + Linsitinib; first compound 2 µM): 0.602

Cell Line: A-427
- relative viability ([1]; first compound 0.02 µM): 1.11
- relative viability ([1]; first compound 0.06325 µM): 1.28
- relative viability ([1]; first compound 0.2 µM): 1.16
- relative viability ([1]; first compound 0.6325 µM): 0.855
- relative viability ([1]; first compound 2 µM): 0.676
- relative viability ([2]; first compound 0.02 µM): 1.08
- relative viability ([2]; first compound 0.06325 µM): 1.14
- relative viability ([2]; first compound 0.2 µM): 1.08
- relative viability ([2]; first compound 0.6325 µM): 0.901
- relative viability ([2]; first compound 2 µM): 0.673
- relative viability (Entinostat + Linsitinib; first compound 0.02 µM): 1.16
- relative viability (Entinostat + Linsitinib; first compound 0.06325 µM): 1.15
- relative viability (Entinostat + Linsitinib; first compound 0.2 µM): 1.01
- relative viability (Entinostat + Linsitinib; first compound 0.6325 µM): 1.07
- relative viability (Entinostat + Linsitinib; first compound 2 µM): 0.825
- relative viability (Entinostat + Tozasertib; first compound 0.02 µM): 0.213
- relative viability (Entinostat + Tozasertib; first compound 0.06325 µM): 0.225
- relative viability (Entinostat + Tozasertib; first compound 0.2 µM): 0.203
- relative viability (Entinostat + Tozasertib; first compound 0.6325 µM): 0.182
- relative viability (Entinostat + Tozasertib; first compound 2 µM): 0.159

Cell Line: ABC-1
- relative viability ([1]; first compound 0.02 µM): 1.09
- relative viability ([1]; first compound 0.06325 µM): 1.07
- relative viability ([1]; first compound 0.2 µM): 0.996
- relative viability ([1]; first compound 0.6325 µM): 1.04
- relative viability ([1]; first compound 2 µM): 0.884
- relative viability ([2]; first compound 0.02 µM): 0.724
- relative viability ([2]; first compound 0.06325 µM): 0.93
- relative viability ([2]; first compound 0.2 µM): 0.713
- relative viability ([2]; first compound 0.6325 µM): 0.635
- relative viability ([2]; first compound 2 µM): 0.538
- relative viability (Entinostat + Linsitinib; first compound 0.02 µM): 0.686
- relative viability (Entinostat + Linsitinib; first compound 0.06325 µM): 0.992
- relative viability (Entinostat + Linsitinib; first compound 0.2 µM): 0.807
- relative viability (Entinostat + Linsitinib; first compound 0.6325 µM): 0.481
- relative viability (Entinostat + Linsitinib; first compound 2 µM): 0.506
- relative viability (Entinostat + Tozasertib; first compound 0.02 µM): 0.175
- relative viability (Entinostat + Tozasertib; first compound 0.06325 µM): 0.237
- relative viability (Entinostat + Tozasertib; first compound 0.2 µM): 0.189
- relative viability (Entinostat + Tozasertib; first compound 0.6325 µM): 0.2
- relative viability (Entinostat + Tozasertib; first compound 2 µM): 0.193

Cell Line: BEN
- relative viability ([1]; first compound 0.02 µM): 0.681
- relative viability ([1]; first compound 0.06325 µM): 0.609
- relative viability ([1]; first compound 0.2 µM): 0.594
- relative viability ([1]; first compound 0.6325 µM): 0.451
- relative viability ([1]; first compound 2 µM): 0.72
- relative viability ([2]; first compound 0.02 µM): 0.953
- relative viability ([2]; first compound 0.06325 µM): 0.94
- relative viability ([2]; first compound 0.2 µM): 1.05
- relative viability ([2]; first compound 0.6325 µM): 0.941
- relative viability ([2]; first compound 2 µM): 0.569
- relative viability (Entinostat + Linsitinib; first compound 0.02 µM): 0.974
- relative viability (Entinostat + Linsitinib; first compound 0.06325 µM): 0.928
- relative viability (Entinostat + Linsitinib; first compound 0.2 µM): 0.83
- relative viability (Entinostat + Linsitinib; first compound 0.6325 µM): 0.537
- relative viability (Entinostat + Linsitinib; first compound 2 µM): 0.249
- relative viability (Entinostat + Tozasertib; first compound 0.02 µM): 0.476
- relative viability (Entinostat + Tozasertib; first compound 0.06325 µM): 0.478
- relative viability (Entinostat + Tozasertib; first compound 0.2 µM): 0.443
- relative viability (Entinostat + Tozasertib; first compound 0.6325 µM): 0.356
- relative viability (Entinostat + Tozasertib; first compound 2 µM): 0.401

Cell Line: CAL-12T
- relative viability ([1]; first compound 0.02 µM): 1.12
- relative viability ([1]; first compound 0.06325 µM): 1.49
- relative viability ([1]; first compound 0.2 µM): 1.19
- relative viability ([1]; first compound 0.6325 µM): 1.21
- relative viability ([1]; first compound 2 µM): 0.941
- relative viability ([2]; first compound 0.02 µM): 0.622
- relative viability ([2]; first compound 0.06325 µM): 0.813
- relative viability ([2]; first compound 0.2 µM): 0.886
- relative viability ([2]; first compound 0.6325 µM): 0.782
- relative viability ([2]; first compound 2 µM): 0.584
- relative viability (Entinostat + Linsitinib; first compound 0.02 µM): 0.838
- relative viability (Entinostat + Linsitinib; first compound 0.06325 µM): 0.815
- relative viability (Entinostat + Linsitinib; first compound 0.2 µM): 0.814
- relative viability (Entinostat + Linsitinib; first compound 0.6325 µM): 0.909
- relative viability (Entinostat + Linsitinib; first compound 2 µM): 0.392
- relative viability (Entinostat + Tozasertib; first compound 0.02 µM): 0.284
- relative viability (Entinostat + Tozasertib; first compound 0.06325 µM): 0.364
- relative viability (Entinostat + Tozasertib; first compound 0.2 µM): 0.319
- relative viability (Entinostat + Tozasertib; first compound 0.6325 µM): 0.186
- relative viability (Entinostat + Tozasertib; first compound 2 µM): 0.206

Cell Line: COR-L23
- relative viability ([1]; first compound 0.02 µM): 0.97
- relative viability ([1]; first compound 0.06325 µM): 1.02
- relative viability ([1]; first compound 0.2 µM): 0.99
- relative viability ([1]; first compound 0.6325 µM): 1.1
- relative viability ([1]; first compound 2 µM): 0.692
- relative viability ([2]; first compound 0.02 µM): 1.16
- relative viability ([2]; first compound 0.06325 µM): 0.978
- relative viability ([2]; first compound 0.2 µM): 0.933
- relative viability ([2]; first compound 0.6325 µM): 1.04
- relative viability ([2]; first compound 2 µM): 0.543
- relative viability (Entinostat + Linsitinib; first compound 0.02 µM): 0.829
- relative viability (Entinostat + Linsitinib; first compound 0.06325 µM): 0.763
- relative viability (Entinostat + Linsitinib; first compound 0.2 µM): 0.748
- relative viability (Entinostat + Linsitinib; first compound 0.6325 µM): 0.416
- relative viability (Entinostat + Linsitinib; first compound 2 µM): 0.132
- relative viability (Entinostat + Tozasertib; first compound 0.02 µM): 0.159
- relative viability (Entinostat + Tozasertib; first compound 0.06325 µM): 0.19
- relative viability (Entinostat + Tozasertib; first compound 0.2 µM): 0.198
- relative viability (Entinostat + Tozasertib; first compound 0.6325 µM): 0.0831
- relative viability (Entinostat + Tozasertib; first compound 2 µM): 0.0903

Cell Line: COR-L 105
- relative viability ([1]; first compound 0.02 µM): 0.915
- relative viability ([1]; first compound 0.06325 µM): 1.28
- relative viability ([1]; first compound 0.2 µM): 0.764
- relative viability ([1]; first compound 0.6325 µM): 0.969
- relative viability ([1]; first compound 2 µM): 0.777
- relative viability ([2]; first compound 0.02 µM): 0.984
- relative viability ([2]; first compound 0.06325 µM): 1.03
- relative viability ([2]; first compound 0.2 µM): 0.822
- relative viability ([2]; first compound 0.6325 µM): 0.905
- relative viability ([2]; first compound 2 µM): 0.672
- relative viability (Entinostat + Linsitinib; first compound 0.02 µM): 1.01
- relative viability (Entinostat + Linsitinib; first compound 0.06325 µM): 0.974
- relative viability (Entinostat + Linsitinib; first compound 0.2 µM): 0.876
- relative viability (Entinostat + Linsitinib; first compound 0.6325 µM): 0.491
- relative viability (Entinostat + Linsitinib; first compound 2 µM): 0.341
- relative viability (Entinostat + Tozasertib; first compound 0.02 µM): 0.372
- relative viability (Entinostat + Tozasertib; first compound 0.06325 µM): 0.291
- relative viability (Entinostat + Tozasertib; first compound 0.2 µM): 0.309
- relative viability (Entinostat + Tozasertib; first compound 0.6325 µM): 0.273
- relative viability (Entinostat + Tozasertib; first compound 2 µM): 0.286
